Measured values published in ChEMBL document CHEMBL2375237, “Optimization of allosteric MEK inhibitors. Part 1: Venturing into underexplored SAR territories” (Bioorg Med Chem Lett, 2013).
The source made the active and inactive calls. No cut-off for these calls is given here.

Tests used:
MIA PaCa-2 = experiment: Antiproliferative activity against human MIAPaCa2 cells; type: functional, cell-based
LoVo = experiment: Antiproliferative activity against human LoVo cells; type: functional, cell-based
A549 [1] = experiment: Antiproliferative activity against human A549 cells; type: functional, cell-based
[2] = Ratio of AUC in mouse brain to AUC in mouse plasma at 5 mg/kg, iv up to 3 hrs; type: ADME, organism-based; design: dose 5 mg/kg, route intravenous; settings: read-out: Ratio AUC
[3] = Oral bioavailability in rat at 5 mg/kg; type: ADME, organism-based; settings: in vivo
[4] = Terminal half life in rat at 0.5 mg/kg, iv and 5 mg/kg, po; type: ADME, organism-based; settings: in vivo, read-out: beta t1/2 (converted)
[5] = Volume of distribution at steady state in rat at 0.5 mg/kg, iv and 5 mg/kg, po; type: ADME, organism-based; settings: in vivo, read-out: Vdss
[6] = Blood clearance in rat at 0.5 mg/kg, iv and 5 mg/kg, po; type: ADME, organism-based; settings: whole blood
HCT-116 [7] = experiment: Antiproliferative activity against human HCT116 cells expressing KRAS G13D mutant; type: functional, cell-based
A-375 = experiment: cells; settings: Homo sapiens, A-375, 72 h
Description: Antiproliferative activity against human A375 cells expressing BRAF V600E mutant after 72 hrs by Cell titer-glo assay

[8] = molecular target: Dual specificity mitogen-activated protein kinase kinase 1 (Homo sapiens, UniProt Q02750); experiment: Inhibition of MEK1 (unknown origin) after 2 hrs by fluorescence assay
[9] = Drug metabolism in hepatocytes (unknown origin) assessed as demethylation of the sulfamide moiety; type: ADME, cell-based, Hepatocyte
[10] = Drug metabolism in liver microsomes (unknown origin) assessed as demethylation of the sulfamide moiety; type: ADME, Microsome
[11] = Oral bioavailability in rat; type: ADME, organism-based; settings: in vivo
[12] = Terminal half life in rat at 1 mg/kg, iv; type: ADME, organism-based; design: dose 1 mg/kg, route intravenous; settings: in vivo, read-out: beta t1/2 (converted)
[13] = Blood clearance in rat at 1 mg/kg, iv; type: ADME, organism-based; design: dose 1 mg/kg, route intravenous; settings: whole blood
[14] = Terminal half life in dog; type: ADME, organism-based, Canis lupus familiaris; settings: in vivo, read-out: beta t1/2 (converted)
[15] = Terminal half life in mouse; type: ADME, organism-based; settings: in vivo, read-out: beta t1/2 (converted)
HCT-116 [16] = experiment: Ratio of AZD6244 IC50 to compound IC50 for human HCT116 cells expressing KRAS G13D mutant; type: functional
[17] = Oral bioavailability in rat at 1 mg/kg; type: ADME, organism-based; settings: in vivo
[18] = Terminal half life in rat at 1 mg/kg, iv and 1 mg/kg, po; type: ADME, organism-based; settings: in vivo, read-out: beta t1/2 (converted)
[19] = Volume of distribution at steady state in rat at 1 mg/kg, iv and 1 mg/kg, po; type: ADME, organism-based; settings: in vivo, read-out: Vdss
[20] = Blood clearance in rat at 1 mg/kg, iv and 1 mg/kg, po; type: ADME, organism-based; settings: whole blood
A549 [21] = settings: Homo sapiens
Description: Antitumor activity against human A549 cells xenografted in nude mouse assessed as tumor growth inhibition at 1 mg/kg, po administered every other day

A549 [22] = settings: Homo sapiens; remark: listed apart in the source
Description: Antitumor activity against human A549 cells xenografted in nude mouse assessed as tumor growth inhibition at 1 mg/kg, po qd

Caco-2 = experiment: Efflux ratio of permeability in human Caco2 cells relative to control; type: ADME, cell-based
[23] = Oral bioavailability in rat at 0.6 mg/kg; type: ADME, organism-based; settings: in vivo
[24] = Terminal half life in rat at 0.3 mg/kg, iv and 0.6 mg/kg, po; type: ADME, organism-based; settings: in vivo, read-out: beta t1/2 (converted)
[25] = Volume of distribution at steady state in rat at 0.3 mg/kg, iv and 0.6 mg/kg, po; type: ADME, organism-based; settings: in vivo, read-out: Vdss
[26] = Blood clearance in rat at 0.3 mg/kg, iv and 0.6 mg/kg, po; type: ADME, organism-based; settings: whole blood
[27] = Terminal half life in rat at 0.5 mg/kg, iv and 1 mg/kg, po; type: ADME, organism-based; settings: in vivo, read-out: beta t1/2 (converted)
[28] = Volume of distribution at steady state in rat at 0.5 mg/kg, iv and 1 mg/kg, po; type: ADME, organism-based; settings: in vivo, read-out: Vdss
[29] = Blood clearance in rat at 0.5 mg/kg, iv and 1 mg/kg, po; type: ADME, organism-based; settings: whole blood
A549 [30] = settings: Homo sapiens; remark: listed apart in the source
Description: Antitumor activity against human A549 cells xenografted in nude mouse assessed as tumor growth inhibition at 3 mg/kg, po qd

Dual specificity mitogen-activated protein kinase kinase 1, sequence (Q02750 whole entry): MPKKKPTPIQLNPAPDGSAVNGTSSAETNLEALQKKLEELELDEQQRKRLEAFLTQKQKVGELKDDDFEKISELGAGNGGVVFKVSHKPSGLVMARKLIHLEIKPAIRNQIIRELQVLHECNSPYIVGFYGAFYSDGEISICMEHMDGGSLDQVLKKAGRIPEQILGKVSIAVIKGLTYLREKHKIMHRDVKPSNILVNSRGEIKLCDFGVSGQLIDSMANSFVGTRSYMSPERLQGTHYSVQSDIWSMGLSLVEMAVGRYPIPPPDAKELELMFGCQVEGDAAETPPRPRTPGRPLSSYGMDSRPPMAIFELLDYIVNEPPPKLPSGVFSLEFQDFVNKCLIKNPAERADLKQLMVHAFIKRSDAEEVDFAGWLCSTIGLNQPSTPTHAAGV

SMILES: Cn1cnc2c(F)c(Nc3ccc(Br)cc3Cl)c(C(=O)NOCCO)cc21 [SELUMETINIB]
- IC50 (MIA PaCa-2): 142 nM
- IC50 (LoVo): 2830 nM
- IC50 (A549 [1]): 1750 nM
- Kp at 3 h [2]: < 0.02
- bioavailability [3]: 14%
- half-life [4]: 3.8 h
- Vd [5]: 0.2 L/kg
- clearance [6]: 1 mL/min/kg
- IC50 (HCT-116 [7]): 3100 nM
- IC50 (A-375): 31 nM

SMILES: CC(=O)Nc1cccc(Oc2cc(F)cc(Nc3ccc(I)cc3F)c2C(N)=O)c1
- IC50 (HCT-116 [7]): 2290 nM
- IC50 (A-375): 50 nM

SMILES: CN1CCC[C@H]1COc1cc(F)cc(Nc2ccc(I)cc2F)c1C(N)=O
- IC50 (A-375): 973 nM

SMILES: CCS(=O)(=O)N1CCC[C@H]1COc1cc(F)cc(Nc2ccc(I)cc2F)c1C(N)=O
- IC50 (A-375): 323 nM

SMILES: NC(=O)c1c(Nc2ccc(I)cc2F)cc(F)cc1Oc1cccc(CS(N)(=O)=O)c1
- IC50 (HCT-116 [7]): 3490 nM
- IC50 [8]: 32 nM
- IC50 (A-375): 37 nM

SMILES: CN(C)S(=O)(=O)Nc1cccc(Oc2cc(F)cc(Nc3ccc(I)cc3F)c2C(N)=O)c1
- Drug metabolism [9]: Active
- Drug metabolism [10]: Active
- bioavailability [11]: 55%
- half-life [12]: 2.2 h
- clearance [13]: 35 mL/min/kg
- IC50 (HCT-116 [7]): 155 nM
- IC50 [8]: 21 nM
- IC50 (A-375): 18 nM

SMILES: NC(=O)c1c(Nc2ccc(I)cc2F)cc(F)cc1OCC[C@@H](O)Cn1cccn1
- IC50 (HCT-116 [7]): 2070 nM
- IC50 [8]: 13 nM
- IC50 (A-375): 151 nM

SMILES: CC(O)(CO)CCOc1cc(F)cc(Nc2ccc(I)cc2F)c1C(N)=O (stereo unspecified)
- IC50 (A-375): 240 nM

SMILES: NC(=O)c1c(Nc2ccc(I)cc2F)cc(F)cc1OCC[C@H](O)CO
- IC50 (A-375): 240 nM

SMILES: CNS(=O)(=O)Nc1cccc(Oc2cc(F)cc(Nc3ccc(I)cc3F)c2C(N)=O)c1
- IC50 (HCT-116 [7]): 103 nM
- IC50 (A-375): 16 nM

SMILES: CC(C)S(=O)(=O)Nc1cccc(Oc2cc(F)cc(Nc3ccc(I)cc3F)c2C(N)=O)c1
- IC50 (HCT-116 [7]): 459 nM
- IC50 [8]: 18 nM
- IC50 (A-375): 17 nM

SMILES: NC(=O)c1c(Nc2ccc(I)cc2F)cc(F)cc1Oc1ccc2oc(=O)[nH]c2c1
- IC50 (HCT-116 [7]): 4510 nM
- IC50 [8]: 36 nM
- IC50 (A-375): 35 nM

SMILES: NC(=O)c1c(Nc2ccc(I)cc2F)cc(F)cc1OC[C@@H]1CCCN1S(N)(=O)=O
- IC50 (HCT-116 [7]): 3040 nM
- IC50 [8]: 73 nM
- IC50 (A-375): 172 nM

SMILES: CS(=O)(=O)Nc1cccc(Oc2cc(F)cc(Nc3ccc(I)cc3F)c2C(N)=O)c1
- IC50 (HCT-116 [7]): 3800 nM
- IC50 [8]: 21 nM
- IC50 (A-375): 23 nM

SMILES: NC(=O)c1c(Nc2ccc(I)cc2F)cc(F)cc1Oc1cccc(NS(N)(=O)=O)c1
- half-life [14]: 110 h
- half-life [15]: 34 h
- IC50 (MIA PaCa-2): 23 nM
- IC50 (LoVo): 175 nM
- IC50 (A549 [1]): 132 nM
- Ratio IC50 (HCT-116 [16]): >=10
- Kp at 3 h [2]: < 0.02
- bioavailability [17]: 62%
- half-life [18]: 32 h
- Vd [19]: 2 L/kg
- clearance [20]: 0.5 mL/min/kg
- IC50 (HCT-116 [7]): 180 nM
- IC50 [8]: 14 nM
- TGI (A549 [21]): Active
- TGI (A549 [22]): Active
- IC50 (A-375): 4 nM

SMILES: CC(C)(O)C(O)CCOc1cc(F)cc(Nc2ccc(I)cc2F)c1C(N)=O (stereo unspecified)
- IC50 (HCT-116 [7]): 2450 nM
- IC50 [8]: 43 nM
- IC50 (A-375): 40 nM

SMILES: NC(=O)c1c(Nc2ccc(I)cc2F)cc(F)cc1Oc1cccc(NS(=O)(=O)N2CCCC2)c1
- IC50 (HCT-116 [7]): 412 nM
- IC50 [8]: 21 nM
- IC50 (A-375): 28 nM

SMILES: NC(=O)c1c(Nc2ccc(I)cc2F)cc(F)cc1Oc1cccnc1
- IC50 (HCT-116 [7]): 4180 nM
- IC50 [8]: 76 nM
- IC50 (A-375): 141 nM

SMILES: CN(C)S(=O)(=O)N1CCC[C@H]1COc1cc(F)cc(Nc2ccc(I)cc2F)c1C(N)=O
- IC50 [8]: 1000 nM
- IC50 (A-375): 1120 nM

SMILES: CC(C)C(=O)Nc1cccc(Oc2cc(F)cc(Nc3ccc(I)cc3F)c2C(N)=O)c1
- IC50 (HCT-116 [7]): 8810 nM
- IC50 [8]: 48 nM
- IC50 (A-375): 192 nM

SMILES: NC(=O)c1c(Nc2ccc(I)cc2F)cc(F)cc1OC[C@@H]1CCCN1
- IC50 (HCT-116 [7]): 3030 nM
- IC50 [8]: 26 nM
- IC50 (A-375): 124 nM

SMILES: NC(=O)c1c(Nc2ccc(I)cc2F)cc(F)cc1Oc1ccccc1
- IC50 [8]: 99 nM
- IC50 (A-375): 408 nM

SMILES: CCS(=O)(=O)Nc1cccc(Oc2cc(F)cc(Nc3ccc(I)cc3F)c2C(N)=O)c1
- IC50 (HCT-116 [7]): 287 nM
- IC50 [8]: 15 nM
- IC50 (A-375): < 30 nM

SMILES: NC(=O)c1c(Nc2ccc(I)cc2F)cc(F)cc1OCC[C@@H](O)Cn1ccnc1
- fold change (FC) (Caco-2): 10
- Kp at 3 h [2]: 0.04
- bioavailability [23]: 20%
- half-life [24]: 8.4 h
- Vd [25]: 10.3 L/kg
- clearance [26]: 9.67 mL/min/kg
- IC50 (HCT-116 [7]): 1250 nM
- IC50 [8]: 16 nM
- IC50 (A-375): 98 nM

SMILES: CC(=O)Nc1ccc(Oc2cc(F)cc(Nc3ccc(I)cc3F)c2C(N)=O)cc1
- IC50 [8]: 539 nM
- IC50 (A-375): 808 nM

SMILES: COc1cc(F)cc(Nc2ccc(I)cc2F)c1C(N)=O
- IC50 [8]: 74 nM
- IC50 (A-375): 354 nM

SMILES: O=C(NOC[C@H](O)CO)c1ccc(F)c(F)c1Nc1ccc(I)cc1F [MIRDAMETINIB]
- bioavailability [17]: 104%
- half-life [27]: 5.4 h
- Vd [28]: 1.7 L/kg
- clearance [29]: 8.33 mL/min/kg
- TGI (A549 [30]): Active

SMILES: NC(=O)c1c(Nc2ccc(I)cc2F)cc(F)cc1OCC[C@@H](O)CO
- Kp at 3 h [2]: 0.73
- bioavailability [17]: 70%
- half-life [27]: 2.4 h
- Vd [28]: 4.4 L/kg
- clearance [29]: 24.8 mL/min/kg
- IC50 (HCT-116 [7]): 3400 nM
- IC50 (A-375): 148 nM

SMILES: NC(=O)c1c(Nc2ccc(I)cc2F)cc(F)cc1OC[C@H](O)CCO
- IC50 [8]: 63 nM
- IC50 (A-375): 350 nM

SMILES: NC(=O)c1c(Nc2ccc(I)cc2F)cc(F)cc1Oc1ccc2cn[nH]c2c1
- IC50 [8]: 54 nM
- IC50 (A-375): 221 nM
